Common to all, as to experiment: NCI anticancer screen, dose series, 48 h
Assay [1] relates to RPMI-8226 leukemia.
Assay [2] has as its system IGROV1 ovarian.
For assay [3], the system named is HL-60(TB) leukemia.
For assay [4], the system named is SF-295 CNS.
Assay [5] has as its system LOX IMVI melanoma.
In assay [6] the test system is DMS 114 small cell lung.
The subject of assay [7] is OVCAR-8 ovarian.
For assay [8], the system named is HOP-62 NSCLC.
Assay [9] has as its system OVCAR-5 ovarian.
The subject of assay [10] is DLD-1 colon.

The structures appear in SMILES notation. “And” between values parts separate entries of the source, which are not always exact repeats. Equal entries are not always repeated.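 Grown in 96-well plates, cells were treated for 48 hours with each compound at five concentrations. Insufficient inhibition: endpoint recorded as highest concentration tested. GI50 marks 50% less growth. At the TGI there is no net growth.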

`CC#C[C@@]1(O)CCCC[C@@H]1O`: the TGI in assay [1], in assay [2], in assay [3], in assay [4], in [5] and in [6] was over 100 µM each time. Also, the TGI in [7] and in assay [8] was over 100 µM each time.
Consider `Cc1ccc(C(=O)N(C(C)C)C(C)C)cc1N=NN(C)C`, for which the TGI in assay [9], in assay [1], in assay [2], in assay [3], in assay [10] and in [4] was over 100 µM each time. The TGI is over 31.6 µM in [5], over 100 µM in [7] and over 100 µM in [8].
Regarding `CCCS(=O)(=O)Nc1ccc(F)c(C(=O)c2c[nH]c3ncc(-c4ccc(Cl)cc4)cc23)c1F`, the GI50 in [9] is 10.2 µM and > 9.13 µM; in assay [1] it was 3.9 µM and 6.36 µM; in assay [2], 3.52 µM and 3.63 µM; in [3], 3.64 µM and > 10 µM; in assay [4] it was 2.62 µM and 3.17 µM; in assay [5] it was 1.47 µM and 1.27 µM. Further, the GI50 is 6.16 µM and > 8.65 µM in [7]; 7.39 µM and > 8.12 µM in assay [8]. Moreover, the TGI in assay [9] was 30 µM and > 10 µM; in assay [1], 37.4 µM and > 10 µM; in [2], 14.4 µM and > 10 µM; in [3], 12.2 µM and > 10 µM; in assay [4], 11.5 µM and > 10 µM; in assay [5] it was 15.2 µM and > 10 µM. The TGI in [7] was 43.6 µM and > 10 µM; in [8] it was 21.6 µM and > 10 µM.
`COc1cc(C)c(C(=O)O[C@H]2[C@H](O[C@H]3[C@@H](O)COC(O[C@H]4C[C@H]5[C@@H]6CC=C7C[C@@H](O)CC[C@]7(C)[C@H]6CC[C@]5(C)[C@H]4[C@H](C)C(=O)CCC(C)C)[C@@H]3OC(C)=O)OC[C@@H](O)[C@@H]2O)c(C)c1` (stereo partly drawn): the GI50 is 0.58 µM in assay [9]; under 0.01 µM in assay [1]; 0.247 µM in [2]; 0.016 µM in [3]; under 0.01 µM in assay [4]; under 0.01 µM in assay [5]. The GI50 is 10.3 µM in [7] and 0.0125 µM in assay [8]. Also, the TGI in [9] is 18.5 µM; in assay [1], under 0.01 µM; in [2], 19.9 µM; in assay [3], 20 µM; in assay [4], under 0.01 µM; in [5], 0.0183 µM. In addition, the TGI in [7] was over 100 µM; in assay [8], 3.65 µM.
Consider `Cc1cc(C)cc(-n2c3nc(=O)n(C)c(=O)c-3nc3ccccc32)c1`, for which the TGI in assay [9] was 93.1 µM; in assay [1], over 100 µM; in [2] it was 94.6 µM; in assay [4], over 100 µM; in assay [5], 91.8 µM; in assay [6], 29.1 µM. Moreover, the TGI in assay [7] and in [8] was over 100 µM in each case.
As to `COc1ccc(/C=C/c2c(C(=O)/C=C/c3ccc(Cl)cc3)c(C)nc3ccccc23)cc1`, the GI50 in assay [9] was 2.08 µM; in assay [1], 1.91 µM; in [2], 0.663 µM; in [3] it was 2.15 µM; in assay [4], 1.72 µM; in assay [5], 1.51 µM. In addition, the GI50 in assay [7] was 2.43 µM; in [8], 2.12 µM. Further, the TGI in assay [9] stood at 4.98 µM; in [1], 6.77 µM; in assay [2], 2.54 µM; in [3], 5.62 µM; in [4], 3.61 µM; in assay [5], 2.9 µM. For the same molecule, the TGI in [7] was 9.13 µM; in assay [8] it was 4.83 µM.
With `O=C(/C=C/c1ccc(C(F)(F)F)cc1)c1ccc(Nc2nc(NCCO)nc(NCCO)n2)cc1`, the GI50 in assay [9] is 2.85 µM; in [1], 2.12 µM; in [2], 3 µM; in [3], 2.97 µM; in [4] it was 3.2 µM; in assay [5] it was 1.56 µM. Moreover, the GI50 in assay [7] is 3.31 µM; in [8], 2.42 µM. The TGI was 14.1 µM in assay [9]; 5.23 µM in assay [1]; 9.51 µM in assay [2]; 10.3 µM in [3]; 13 µM in assay [4]; 3 µM in assay [5]. Besides, the TGI in [7] is 20.2 µM; in assay [8] it was 7.99 µM.
On to `COc1ccc(/C(C)=C(\c2ccc(Cl)cc2)c2ccc(OCCN3CCCC3)cc2)cc1`, for which the GI50 in assay [9] was 4.32 µM; in [1], 3.66 µM; in assay [2], 4.13 µM; in assay [3], 4.57 µM; in assay [4], 3.23 µM; in assay [5], 1.51 µM. The figures for the GI50 in [7] and in assay [8] were 5.2 µM and 4.68 µM, respectively. The TGI was determined as 8.65 µM in assay [9]; 10 µM in [1]; 8.91 µM in assay [2]; 10.9 µM in [3]; 7.25 µM in assay [4]; 5.84 µM in [5]. The figures for the TGI in assay [7] and in assay [8] were 10.2 µM and 9.03 µM, respectively.
Turning to `CN(C(=O)C1(C(=O)C=[N+]=[N-])CC1)c1ccccc1`, the TGI in assay [9], in assay [1], in [2], in assay [3], in assay [4] and in [5] was over 100 µM throughout. Moreover, the TGI in assay [7] and in [8] was over 100 µM each time.
`COc1ccc(N2CCN(C(=O)c3ccccc3Nc3ccnc(C(F)(F)F)c3)CC2)cc1`: the GI50 was over 100 µM in assay [9]; 9.48 µM in assay [1]; 13.7 µM in [2]; 32.3 µM in [3]; 40.5 µM in [4]; 60.1 µM in assay [5]. The GI50 in [7] was 40.7 µM; in [8], 54.8 µM. In addition, the TGI is over 100 µM in [9]; over 100 µM in assay [1]; 93.6 µM in [2]; over 100 µM in assay [3]; over 100 µM in assay [4]; over 100 µM in [5]. For the same molecule, the TGI in assay [7] and in [8] was over 100 µM throughout.
As to `CC(CN=C(CC(=O)c1ccc(Br)cc1)c1ccccc1)N=C(CC(=O)c1ccc(Br)cc1)c1ccccc1` (stereo not drawn), the GI50 in assay [9] was over 100 µM; in assay [1], 4.37 µM; in assay [2], 3.37 µM; in assay [3], 17.2 µM; in assay [4], 29.2 µM; in assay [5] it was 66.1 µM. The GI50 is 34.6 µM in assay [7] and over 100 µM in assay [8]. Besides, the TGI in [9] was over 100 µM; in assay [1], 38.6 µM; in assay [2] it was over 100 µM; in assay [3], 68 µM; in [4], over 100 µM; in assay [5] it was over 100 µM. The TGI in assay [7] and in assay [8] was over 100 µM each time.
Regarding `Cc1ccc(Cl)cc1Nc1nc(C(F)(F)F)ccc1C(=O)Nc1cccc(C(F)(F)F)c1`, the GI50 in assay [9] was 2.59 µM; in assay [1], 2.34 µM; in [2] it was 1.69 µM; in assay [3], 3.61 µM; in [4], 3.65 µM; in [5], 3.73 µM. The figures for the GI50 in [7] and in assay [8] were 3.62 µM and 2.69 µM, respectively. Moreover, the TGI stood at 11.4 µM in [9]; 12.6 µM in [1]; 13.4 µM in assay [2]; 10.5 µM in assay [3]; 18.4 µM in [4]; 13.2 µM in assay [5]. Moreover, the TGI came to 15.8 µM in [7] and 10.3 µM in assay [8].
For `CC1(C)CCC[C@]23C(=O)O[C@](O)(C(=O)C4=C[C@@](C)(/C=C/CCCc5ccc6ccc7cccc8ccc5c6c78)CC[C@@]42O)[C@@H]13`, the GI50 in assay [9] is 0.187 µM; in assay [1], 0.196 µM; in assay [2], 0.175 µM; in [3], 0.248 µM; in [4], 0.178 µM; in assay [5], 0.164 µM. Besides, the values for the GI50 in [7] and in assay [8] were 0.25 µM and 0.215 µM, respectively. The TGI in assay [9] turned out to be 0.376 µM; in [1], 0.571 µM; in assay [2], 0.329 µM; in assay [3], 0.649 µM; in assay [4], 0.336 µM; in [5] it was 0.31 µM. Besides, the TGI in [7] turned out to be 1.15 µM; in assay [8], 0.563 µM.
Take `CC[C@@]1(O)C(=O)NCc2c1cc1n(c2=O)Cc2cc3ccccc3nc2-1`: the GI50 in assay [9] was 15.1 µM; in assay [1], 2.15 µM; in assay [2] it was 12.1 µM; in [3] it was 1.33 µM; in assay [4], 0.575 µM; in [5], 2.06 µM. Also, the GI50 is 2.12 µM in [7] and 0.42 µM in assay [8]. Moreover, the TGI in [9] is over 100 µM; in assay [1] it was over 43.3 µM; in assay [2], over 100 µM; in assay [3] it was over 24 µM; in assay [4], 13.2 µM; in [5], over 100 µM. Besides, the TGI in [7] is over 44.8 µM; in assay [8], 4.31 µM.

The values are drawn from PubChem BioAssay (NCI).
